# According to US6825185B2, “Substituted aryl compounds as novel cyclooxygenase-2 selective inhibitors, compositions and methods of use” (NitroMed, Inc., priority 2000, dated 2004):
# Tests used:
# [1] = target: T1, COX-1 (Homo sapiens, UniProt P23219); test: COX-1 enzyme activity in human whole blood (A23187 stimulated, thromboxane B2 EIA); type: cell-based; parameters: Human blood (≈50 mL) from male or female donors who had not received any aspirin or NSAIDs for 14 days; endogenous in cells; host or cells: human whole blood from donors; conditions: test compound at 100 μM
# T1 sequence (P23219 24-599): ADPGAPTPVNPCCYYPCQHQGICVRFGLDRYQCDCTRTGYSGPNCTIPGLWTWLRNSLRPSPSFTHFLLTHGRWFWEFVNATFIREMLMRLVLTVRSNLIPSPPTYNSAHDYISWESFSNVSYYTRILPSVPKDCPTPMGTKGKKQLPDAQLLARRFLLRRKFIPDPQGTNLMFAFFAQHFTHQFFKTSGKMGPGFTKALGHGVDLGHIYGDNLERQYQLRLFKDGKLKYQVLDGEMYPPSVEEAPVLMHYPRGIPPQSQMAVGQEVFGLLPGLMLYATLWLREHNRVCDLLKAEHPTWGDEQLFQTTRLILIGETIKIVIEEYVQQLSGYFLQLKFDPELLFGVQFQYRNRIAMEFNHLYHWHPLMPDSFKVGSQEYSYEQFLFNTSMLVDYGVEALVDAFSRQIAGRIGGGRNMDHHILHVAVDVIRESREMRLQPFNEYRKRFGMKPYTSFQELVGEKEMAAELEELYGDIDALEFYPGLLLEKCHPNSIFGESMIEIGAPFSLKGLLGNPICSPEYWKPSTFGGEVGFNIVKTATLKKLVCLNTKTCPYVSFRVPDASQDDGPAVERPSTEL
# Protocol: (§1) The assay for COX-1 and COX-2 enzyme activity, in the human whole blood was performed as described in Brideau et al., Inflamm Res., 45: 68-74 (1996)). Human blood (≈50 mL) from male or female donors who had not received any aspirin or NSAIDs for 14 days was collected at two local area blood donor centers and placed in polypropylene syringes containing sodium heparin (20 units per mL blood, final concentration). The blood was transported to the laboratory on ice packs and used within 1.5 hours of collection. Upon receipt in the laboratory, the blood was allowed to come to room temperature for 15 minutes prior to distribution in 1 mL aliquots per well of 24 well tissue culture plates. The plates were then placed on a gently rotating platform shaker in a 5% CO2 incubator at 37° C. for 15 minutes. Test compounds were dissolved in DMSO, at 1000 fold the final desired concentration, and further diluted, as indicated, in DMSO. One μL of each dilution of the test compound was added per well, in duplicate wells; wells not receiving test compound (e.g., basal, background or control wells) received 1 μL DMSO.
# (§2) To induce COX-2, lipopolysaccharide (LPS) from E. coli (LPS, serotype 026:B6 or serotype 0127:B8, Sigma Chemical Co., St. Louis, Mo., Catalogue No. L3755 or L3129, respectively) was added at 10 μg/mL (2 μL of 5 mg/mL LPS in DMSO) to appropriate wells 15 minutes after the addition of the test compound. (Basal or background wells not incubated with LPS received 2 μL of DMSO.) For the stimulation of COX-1, the calcium ionophore, A23187 (free acid from Sigma Chemical Co., St. Louis, Mo., Catalogue No. C7522) was added at 25 μM (1 μL of 25 mM stock in DMSO) to separate wells 4.5 hours after the addition of the test compound. (Again, basal, background or control wells not stimulated with A23187 received 1 μL of DMSO.) At 5 hours after the addition of the test compound, all incubations were terminated by placement on ice and the addition of 2 mM EGTA (100 μL of 20 mM EGTA, tetrasodium, in PBS (phosphate buffered saline) without Ca^++ and Mg^++, pH 7.2)). The resulting solutions, were transferred by polyethylene transfer pipettes to 15 mL polypropylene centrifuge tubes and centrifuged at 1200 g for 10 minutes at 4° C. One hundred μL of plasma was removed from each blood sample and added to 1 mL of methanol in new 15 mL polypropylene centrifuge tubes, vortexed, and stored overnight at −20° C. The next day, the samples were centrifuged at 2000 g for 10 minutes at 4° C. and the supernatants transferred to glass tubes and evaporated to dryness. The samples were assayed for thromboxane B2 using EIA kits supplied by Cayman Chemical Co. (Ann Arbor, Mich., Catalogue No. 519031) in duplicate wells after reconstitution with EIA Buffer and appropriate dilution (2000 fold for COX-1 and 500 fold for Cox-2 samples).
# [2] = target: T1, COX-1; test: Human COX-1 enzyme activity (COX Inhibitor Screening Assay, prostaglandin EIA); type: biochemical; parameters: purchased Cayman Chemical; conditions: test compound at 100 μM
# Protocol: (§3) The human COX-1 and COX-2 enzyme activities and the measurement of the prostaglandin products synthesized were performed using the COX Inhibitor Screening Assay (Cayman Chemical, Ann Arbor, Mich.), which also contained the Prostaglandin Screening EIA Kit, used for prostaglandin quantification). The test compounds were dissolved at 50 times the highest final reaction concentration in DMSO or any other suitable solvent as stock solutions. These stock solutions were then diluted in the same solvent. Eight glass test tubes (13×100 mm) were placed in a 25° C. water bath. To each test tube was added 950 μL of reaction buffer (0.1 M Tris-HCl, pH 8.0, containing 5 mM EDTA, and 2 mM phenol), 10 μL of 100 µM heme solution, and 10 μL (5 units) of either human COX-1 or COX-2 enzyme and the resulting mixture was incubated for 2 minutes. Twenty μL of the solvent was added to one tube (100% initial activity or solvent control) and 20 μL of each dilution of the test compound was added to one tube each. Each tube was vortexed immediately after the addition. The enzyme was incubated with the inhibitor for 20 minutes at 25° C. The enzymatic reaction was then initiated by the addition of 10 μL of freshly prepared 10 mM arachidonic acid (neutralized with KOH), vortexed and then incubated for 2 minutes (or, in some cases as indicated, 30 seconds) at 37° C. The reaction was terminated by the addition of 50 μL of 1 M HCl, vortexed and placed at room temperature. One hundred μL of a saturated stannous chloride solution (50 mg/mL of 0.1 M HCl) was added and the reaction mixture was allowed to stand at room temperature for at least 5 minutes.
# (§4) The prostaglandins (PG) produced in the reactions were assayed, after a 2,000-fold dilution, using the Prostaglandin Screening EIA Kit (Cayman Chemical, Ann Arbor, Mich.). The assay contains an antibody with broad specificity for all the prostaglandin families (PGF, PGE, PGD, and thromboxane B-type) synthesized in the COX-1/COX-2 reactions. The synthesized prostaglandin competes with a PG-tagged acetylcholine esterase tracer for binding to the PG antibody. Binding of synthesized PG lowers the colorimetric development of the Ellman's Reagent (computed as %B/B0). The actual amount of synthesized PG was interpolated from a standard curve using known amounts of supplied prostaglandin E2 (PGE2) (PGE2 concentration vs. %B/B0). The data generated were the mean±standard deviation of triplicate wells in the EIA for a single reaction at a given inhibitor concentration. A plot of % of control (i.e., the solvent control without inhibitor) vs. test compound inhibitor concentration for both isoenzymes was used to determine the IC50 's for COX-1 and COX-2 for that test compound, when IC50's were calculated. The % inhibition for COX-1 and COX-2 enzyme activity by the test compounds at the indicated concentrations are given in Table 1.
# [3] = target: T2, COX-2 (Homo sapiens, UniProt P35354); test: Human COX-2 enzyme activity (COX Inhibitor Screening Assay, prostaglandin EIA); type: biochemical; parameters: purchased Cayman Chemical; conditions: test compound at 10 μM
# T2 sequence (P35354 18-604): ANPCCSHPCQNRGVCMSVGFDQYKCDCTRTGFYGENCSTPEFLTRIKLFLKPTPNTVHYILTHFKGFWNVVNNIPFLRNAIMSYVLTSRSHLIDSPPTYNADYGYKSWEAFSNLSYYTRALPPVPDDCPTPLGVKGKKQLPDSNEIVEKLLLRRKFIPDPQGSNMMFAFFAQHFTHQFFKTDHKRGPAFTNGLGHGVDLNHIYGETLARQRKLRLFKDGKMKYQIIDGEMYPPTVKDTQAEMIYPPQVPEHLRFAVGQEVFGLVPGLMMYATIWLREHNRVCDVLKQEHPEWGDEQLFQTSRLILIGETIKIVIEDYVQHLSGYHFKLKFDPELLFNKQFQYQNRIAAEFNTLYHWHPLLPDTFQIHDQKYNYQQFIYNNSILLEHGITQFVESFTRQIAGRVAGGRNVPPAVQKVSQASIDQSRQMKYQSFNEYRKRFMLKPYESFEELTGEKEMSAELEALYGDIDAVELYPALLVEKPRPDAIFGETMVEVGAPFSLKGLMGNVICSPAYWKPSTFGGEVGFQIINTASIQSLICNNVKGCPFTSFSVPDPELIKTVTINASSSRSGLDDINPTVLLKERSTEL
# Protocol: as §3
# as §4, with “concentration.” for “concentration. A plot of % of control (i.e., the solvent control without inhibitor) vs. test compound inhibitor concentration for both isoenzymes was used to determine the IC50 's for COX-1 and COX-2 for that test compound, when IC50's were calculated. The % inhibition for COX-1 and COX-2 enzyme activity by the test compounds at the indicated concentrations are given in Table 1.”
# [4] = target: T2, COX-2; test: COX-2 enzyme activity in human whole blood (LPS induced, thromboxane B2 EIA); type: cell-based; parameters: Human blood (≈50 mL) from male or female donors who had not received any aspirin or NSAIDs for 14 days; endogenous in cells; host or cells: human whole blood from donors, LPS-induced; conditions: test compound at 10 μM
# Protocol: as §1, with “Human” for “The assay for COX-1 and COX-2 enzyme activity, in the human whole blood was performed as described in Brideau et al., Inflamm Res., 45: 68-74 (1996)). Human”
# as §2, with “(Basal or background wells not incubated with LPS received 2 μL of DMSO.) For the stimulation of COX-1, the calcium ionophore, A23187 (free acid from Sigma Chemical Co., St. Louis, Mo., Catalogue No. C7522) was added at 25 μM (1 μL of 25 mM stock in DMSO) to separate wells 4.5 hours after the addition of the test compound.” left out, “dryness.” for “dryness. The samples were assayed for thromboxane B2 using EIA kits supplied by Cayman Chemical Co. (Ann Arbor, Mich., Catalogue No. 519031) in duplicate wells after reconstitution with EIA Buffer and appropriate dilution (2000 fold for COX-1 and 500 fold for Cox-2 samples).”
SMILES,COX-1 Inhibition (% at 100 μM) [1],COX-1 Inhibition (% at 100 μM) [2],COX-2 Inhibition (% at 10 μM) [3],melting point,inhibition at 10 µM [4],inhibition at 100 µM [1]
"CS(=O)(=O)c1ccc(-c2cc3c(cc2C=C2CCCCC2)OCO3)cc1 [Example 1d, 1-(6-(Cyclohexylidenemethyl)(2-H-benzo(3,4-d) 1,3-dioxolen-5-yl))-4-(methylsulfonyl)benzene]",50%,5%,–,–,–,–
"CS(=O)(=O)c1ccc(-c2cc3c(cc2C(=O)c2cccnc2)OCO3)cc1 [Example 6d, 6-(4-(Methylsulfonyl)phenyl)(2H-benzo(d)1,3-dioxolan-5-yl) 3-pyridyl ketone]",–,20%,20%,–,–,–
"CS(=O)(=O)c1ccc(-c2cc3c(cc2CN2CCCC(CO)C2)OCO3)cc1 (stereo not drawn) [Example 8b, 1-(6-((3-(Hydroxymethyl)piperidyl)methyl)(2H-benzo(3,4-d)1,3-dioxolan-5-yl))-4-(methylsulfonyl)benzene]",–,0%,30%,–,–,–
"CS(=O)(=O)c1ccc(-c2cc3c(cc2CN2CCCC(CO[N+](=O)[O-])C2)OCO3)cc1 (stereo not drawn) [Example 8c, 4-(Methylsulfonyl)-1-(6-((3-((nitrooxy)methyl)piperidyl)methyl)(2H-benzo(3,4-d) 1,3-dioxolan-5-yl))benzene]",–,25%,80%,–,–,–
"CS(=O)(=O)c1ccc(-c2cc3c(cc2CC2CCCC2)OCO3)cc1 [Example 10b, 4-(6-(Cyclopenthylmethyl)(2H-benzo(3,4-d)1,3-dioxolan-5-yl))-1-(methylsulfonyl)benzene]",–,20%,70%,–,–,–
"CS(=O)(=O)c1ccc(-c2cc3c(cc2C=C2CCCCCC2)OCO3)cc1 [Example 11b, 4-(6-(Cycloheptylidenemethyl)(2H-benzo(3,4-d)1,3-dioxolan-5-yl))-1-(methylsulfonyl) benzene]",40%,10%,–,–,–,–
"CS(=O)(=O)c1ccc(-c2cc3c(cc2Cc2cc(F)cc(F)c2)OCCO3)cc1 [Example 20, 1-(7-((3,5-Difluorophenyl)methyl)(2H, 3H-benzo(3,4-e)1,4-dioxin-6-yl))-4-(methylsulfonyl)benzene]",–,–,–,160 to 162 °C,40%,70%
"CS(=O)(=O)c1ccc(-c2cc3c(cc2Cc2cc(F)cc(F)c2)OC(C(N)=O)CO3)cc1 (stereo not drawn) [Example 21, 7-((3,5-Difluorophenyl)methyl)-6-(4-(methylsulfonyl)phenyl)-2H, 3H-benzo(e)1,4-dioxin-2-carboxamide]",–,–,–,238 to 241 °C,30%,50%
